Laboratory results published in publication PMC6271041, “Synthesis and Biological Evaluation of Novel 2-Arylalkylthio-5-iodine-6-substituted-benzyl-pyrimidine-4(3H)-ones as Potent HIV-1 Non-Nucleoside Reverse Transcriptase Inhibitors” (Molecules, 2014).

Columns and labels:
HIV-1 RT = target: T1, HIV-1 RT (Human immunodeficiency virus type 1 group M subtype B, UniProt P04585); assay: Inhibitory activity against HIV-1 RT (biotin-dUTP incorporation, colorimetric); assay type: biochemical; settings: for IC50: mean of three separate experiments, variation less than 15%
T1 construct: The biotin-dUTP was incorporated by reverse transcriptase (Sigma, St. Louis, MO, USA); purchased Sigma
Procedure: Oligo(dT) (TaKaRa Co., Otsu, Japan) was immobilized via its 5'-terminal phosphate to Covalink-NH microtiter plates (NUNC Co., Roskilde, Denmark). The biotin-dUTP was incorporated by reverse transcriptase (Sigma, St. Louis, MO, USA). Briefly, a serial concentration of inhibitor was added to the mixture, which contained 50 mmol/L Tris-HCl (pH 8.3), 3 mmol/L MgCl2, 75 mmol/L KCl, 5 mmol/L DTT, 0.13 mg/mL BSA, 10 μg/mL poly (A), 0.75 μM biotin-11-Dutp, 1.5 μM dTTP and HIV-1 RT. After incubation at 37 °C for 1h, washing buffer, which contained 50 mmol/L Tris-HCl (pH 7.5), 0.15 mol/L NaCl, 0.05 mmol/L MgCl2 and 0.02% Tween20, was used to wash the plate. Then each well of the plate was added […] 1% BSA and incubated at room temperature for another 30 min. The plate was washed with the same buffer for 3 times. Before further incubation at 37 °C for 1 h, 50 μL of alkaline phosphatase streptavidin (SA-ALP) solution (100 ng/mL) was added to each well and washed again as above. Finally, 50 μL of p-nitrophenyl phosphate, disodium (PNPP, 1 mg/mL, pH 9.5) was added and incubated at 37 °C for 30 min. 0.5 mol/L NaOH was added to stop the reaction and a colorimetric streptavidin-alkaline phosphatase reporter system was used to detect and quantify the result.

HIV-1SF33 = assay: Inhibitory activity on HIV-1SF33 infection in TZM-bl cells (p24 ELISA); assay type: cell-based; settings: Human immunodeficiency virus 1, 168 h, read-out: EC50 /SF33, concentration inhibiting 50% viral replication, HIV-1SF33 infection in TZM-bl cell line, 7 days
Procedure: TZM-bl cells, HIV-1SF33 were obtained from the NIH AIDS Research and Reference Reagent Program (Germantown, MD, USA). The inhibitory activity of the compounds on infection by a laboratory-adapted HIV-1 strain SF33 was tested in TZM-bl cells. Briefly, TZM-bl cells (4 × 10^4/well) were infected by addition of 200 TCID50 of HIV-1, followed by incubation for 2 h at 37 °C before addition of compounds at serial dilutions.

Compound	fold more active compared to nevirapine (HIV-1 RT IC50) (HIV-1 RT)	IC50 (HIV-1 RT)	EC50 (HIV-1SF33)	melting point
Cc1cc(C)cc(Cc2nc(SCCc3ccc([N+](=O)[O-])cc3)[nH]c(=O)c2I)c1 [8n, 2-(4-Nitrophenethylthio)-5-iodine-6-(3,5-dimethylbenzyl)uracil]	about 10 fold	0.7 µM	3.84 µM	220 to 221 °C
Cc1cc(C)cc(Cc2nc(SCCOc3ccc([N+](=O)[O-])cc3)[nH]c(=O)c2I)c1 [8q]	–	1.31 µM	9.44 µM	215 to 218 °C
Cc1cc(C)cc(Cc2cc(=O)[nH]c(SCCc3ccc([N+](=O)[O-])cc3)n2)c1 [7n, 2-(4-Nitrophenethylthio)-6-(3,5-dimethylbenzyl)uracil]	–	1.4 µM	6.12 µM	212 to 215 °C
Cc1cc(C)cc(Cc2cc(=O)[nH]c(SCCOc3ccc([N+](=O)[O-])cc3)n2)c1 [7q, 2-(2-(4-Nitrophenoxy)ethylthio)-6-(3,5-dimethylbenzyl)uracil]	–	0.59 µM	5.07 µM	210 to 214 °C
Cc1ccnc2c1NC(=O)c1cccnc1N2C1CC1 [nevirapine, reference compound]	–	–	0.19 µM	–
O=c1[nH]c(SCCOc2ccc([N+](=O)[O-])cc2)nc(Cc2cc(F)cc(F)c2)c1I [8r, 2-(2-(4-Nitrophenoxy)ethylthio)-5-Iodine-6-(3,5-difluorobenzyl)uracil]	–	2.56 µM	4.1 µM	224 to 226 °C
CC(=O)c1ccc(CSc2nc(Cc3cc(C)cc(C)c3)c(I)c(=O)[nH]2)cc1 [8h, 2-(4-Acetylbenzylthio)-5-iodine-6-(3,5-Dimethylbenzyl)uracil]	about 10 fold	0.41 µM	1.06 µM	201 to 203 °C
